Test results published in patent publication US20260232693A1, “IMPROVING GLYMPHATIC-LYMPHATIC EFFLUX” (UNIVERSITY OF ROCHESTER, priority 2023, published 2026).
Entries after “also recorded” stand apart in the source; their conditions may differ.

Assays:
Type in all cases: in vivo, C57BL/6 mice
[1] = system: cervical lymphatic vessels (cLVs); assay: 2P-OPTIC two-photon imaging with particle tracking of cervical lymphatic vessel contraction and flow, before and after topical PGF2α; details: for decrease in retrograde fraction / ejection rate / increase in ejection fraction / increase in ejection volume / median vessel diameter: after vs before PGF2α; for retrograde fraction after PGF2α / ejection fraction after PGF2α: mean±SEM; for increase in intrinsic pulsation rate: after vs before topical PGF2α 5 μM
[2] = Measurement of vital signs (heart and respiratory rate) before and after PGF2α; details: topical PGF2α; young and old mice
Method: Heart and respiratory rate were measured using a small animal physiological monitoring 494 device (Harvard Apparatus) which acquired measurements at 1 kHz and 250 Hz, respectively. The signals were digitized and recorded with a DigiData 1550A digitizer and AxoScope software 496 (Axon Instruments).

[3] = system: cervical lymphatic vessels (cLVs); assay: Epi-fluorescent macroscopic imaging of OVA-647 CSF tracer drainage in cervical lymphatic vessels; details: 60 min imaging, 5 μM PGF2α topical
Method: Ovalbumin-conjugated to Alexa Fluor 647 (OVA-647, 0.5% w/v, 45 kDa, Invitrogen, 10 μL, 2 μL/min) was injected into the cisterna magna through a 30G needle connected to PE-10 tubing using a syringe pump (Harvard Apparatus). Cervical lymphatic vessels were surgically exposed as before and imaged using a fluorescent macroscope (MVX10, Olympus) with a PRIOR Lumen 1600-LED light source and ORCA Flash 4.0 digital camera (Hamamatsu) using Metamorph software. The images at 20× magnification from the far-red emission channel (647 nm) were collected at 1 min intervals for 60 min following the start of the injection. Exposure time was kept constant across all the experimental groups. One microliter PBS with or without 5 μM PGF2a was applied directly onto the cervical lymph vessel simultaneously with the injection of OVA-647 into cisterna magna.

[4] = system: cervical lymph nodes (cLNs); assay: Ex vivo cervical lymph node imaging of OVA-647 accumulation; details: 90 min
Method: One microliter PBS with or without 5 μM PGF2a was applied directly onto the cervical lymph vessel simultaneously with the injection of OVA-647 (0.5% w/v, 45 kDa, Invitrogen, 10 μL, 2 μL/min) into cisterna magna for 90 min. Then the superficial and deep cervical lymph nodes were dissected and put on the microscope slices (Fisherbrand). The lymph nodes were placed under the macroscope (MVX10 Research Macro Zoom Microscope, 633 Olympus). The images were acquired in the far-red emission channel (647 nm).

[5] = system: superficial cervical lymph vessels; assay: DB53 brain clearance assay (intrastriatal injection, brain retention and femoral vein signal)
Method: Clearance assay was conducted using our published method (Pla, V. et al. A real-time in vivo clearance assay for quantification of glymphatic efflux. Cell Rep 40, 111320 (2022)). Briefly, anesthetized mice were mounted in a stereotactic apparatus and a small burr hole was made (AP+0.6 mm; ML-2.0 mm). A guide cannula (26G, […] SPC, 4.5 mm below pedestal) and dummy cannula ([…], 0.1 mm projection) was placed at DV 3.3 mm. After 48 hr, the dummy cannula was replaced by the inner cannula (33G, […]/SP, 0.1 mm projection), connected by a PE10 tubing to a 10 μL Hamilton syringe containing 4% (w/v) DB53 in sterile aCSF. The left femoral vein was exposed via skin resection and was placed under a fluorescent macroscope (microscope: MVX10, Olympus; light: PRIOR Lumen 1600-LED; camera: Flash 4.0 digital, Hamamatsu). The pump infusion (1 μL, […]) was triggered simultaneously with the imaging over the vein, once every 15 min for 2 h for the intraparenchymal delivery. […] At the end of the experiment, animals were decapitated, and their brains were harvested for postmortem analysis. For quantitative image analysis for femoral vein and ex vivo in the brain is the same as described in Pla, V. et al. A real-time in vivo clearance assay for quantification of glymphatic efflux. Cell Rep 40, 111320 (2022).

SMILES: CCCCC[C@H](O)/C=C/[C@@H]1[C@@H](C/C=C\CCCC(=O)O)[C@@H](O)C[C@H]1O [PGF2α, prostaglandin F2α]
- decrease in retrograde fraction ([1]; 2-month-old mice): 64.2%
- ejection rate ([1]; 2-month-old mice): no change
- increase in ejection fraction ([1]; 2-month-old mice): 7.0%
- increase in ejection volume ([1]; 2-month-old mice): 148.6%
- median vessel diameter ([1]; 2-month-old mice): decreased
- retrograde fraction after PGF2α ([1]; 2-month-old mice, before: 8.1±1.0): 2.9±0.6%
- ejection fraction after PGF2α ([1]; 2-month-old mice, before: 90.8±0.8): 97.1±0.6%
- increase in CSF drainage (number of microsphere particles detected in cLVs) ([1]; 2-month-old mice, intracisternal fluorescent microspheres): 35.4%
- decrease in retrograde fraction ([1]; 22-month-old mice): 83.6%
- ejection rate ([1]; 22-month-old mice): no change
- increase in ejection fraction ([1]; 22-month-old mice): 31.7%
- increase in ejection volume ([1]; 22-month-old mice): 181.4%
- median vessel diameter ([1]; 22-month-old mice): decreased
- retrograde fraction after PGF2α ([1]; 22-month-old mice, before: 27.5±2.1): 4.5±0.4%
- ejection fraction after PGF2α ([1]; 22-month-old mice, before: 72.5±2.1): 95.5±0.5%
- solute arriving to the cLN (particle count) compared to untreated aged controls ([1]; aged mice, intracisternal fluorescent microspheres): ~4 times
- increase in intrinsic pulsation rate ([1]; old (22-month-old) mice): 152.0%
- increase in flow speeds ([1]; old mice, after vs before topical PGF2α): 3.5 fold
- contraction amplitude (Δd) ([1]; vs before PGF2α): increased
- increase in intrinsic pulsation rate ([1]; young (2-month-old) mice): 50.7%
- increase in downstream speed ([1]; young mice, after vs before topical PGF2α): 103.1%
- respiratory rate [2]: did not induce changes; also recorded: unaffected
- CSF drainage of OVA647 tracer (fluorescence intensity in cLVs) ([3]; old (22-month-old) mice): promoted robust CSF drainage
- CSF drainage of OVA647 tracer (fluorescence intensity in cLVs) ([3]; young mice): promoted robust CSF drainage
- accumulation of OVA647 in cLNs, ex vivo ([4]; 2-month-old mice): significantly larger accumulation
- accumulation of OVA647 in cLNs, ex vivo ([4]; 22-month-old mice): significantly larger accumulation
- DB53 signal in the femoral vein ([5]; 75 min, control 4.6±0.8): 8.3±1.3
- DB53 signal in the femoral vein ([5]; 90 min, control 5.5±0.6): 10.3±1.5
- DB53 signal in the femoral vein ([5]; 105 min, control 6.6±0.7): 10.8±1.4
- DB53 signal in the femoral vein ([5]; 120 min, control 6.8±0.7): 11.45±8.3
- DB53 signal in the femoral vein (brain clearance to plasma), overall vs control ([5]; 2 h imaging): dramatically increased
- DB53 retained in the brain (% area of DB53 fluorescence) ([5]; after intrastriatal DB53, control 10.1±1.3, mean±SEM): 6.3±0.9 % area
